The record followed here is patent US8957000B2, “Use of sarmentine and its analogs for controlling plant pests” (Marrone Bio Innovations, Inc., priority 2009, dated 2015).

This experiment has as its system Barnyard grass (Echinochloa crusgalli L.). Put plainly: Herbicidal activity, foliar spraying (spectrum and SAR study). Type of experiment: in vivo. The conditions noted are these: SAR study, foliar spray 3 mL of 5 mg/mL; for pest or weed control at 5000 µg/mL: Echinochloa crus-galli, 72 h, read-out: Efficacy of phytotoxic activity; for pest or weed control at 5000 µg/mL / Efficacy of phytotoxic activity: one pot of barnyard grass, at least 3 days after spraying. The source says:
All weed, sedge and crop seedlings were planted in 8 cm×8 cm×7.2 cm or 10 cm×10 cm×9 cm plastic pots. Seedlings including pigweed (Amaranthus retroflexus, L.), barnyard grass (Echinochloa crusgalli L.), bindweed (Convolvulus arvensis L.), crabgrass (Digitaria sanguinalis L.), dandelion (Taraxacum officinale F.), lambsquarters (Chenopodium album L.), bluegrass (Poa annua L.), wild mustard (Brassica kaber L.), black nightshade (Solanum nigrum L.), curly dock (Rumex crispus L.), horseweed (Conyza Canadensis L.), sweet corn (Zea may S.) and wheat PR 1404 (Triticum aestivum L.) were planted in Super Soil potting soil. Seedlings including rice M-104 (Oryza saliva L.), sedge (Cyperus difformis L.) and sprangletop (Leptochloa fascicularis Lam) were planted in mud which was collected from rice field (Woodland, Calif., USA). When treated, all seedlings were 15 days old except for rice (10 days), wheat (20 days), corn (20 days) sprangletop (20 days old), sedge (20 days old) and horse weed (70 days old).
Herbicidal activity of the active compound and synthesized compounds was evaluated by foliar spraying. Spraying carrier solution contained 2% ethanol, 0.2% glycosperse O-20 and 0.1% sodium lauryl sulfate. Freshly made solution with the evaluated compound at a concentration of 5 mg/mL was used. In the spectrum study, spraying volume was dependent on the foliar surface area, ranging from approximately 1 to 3 mL/pot plants. One or two pots of plants were treated for each. Number of pots was dependent on both foliar area and availability. In the structure-activity relationship study, one pot of barnyard grass was used and the spraying volume of each compound was 3 mL of 5 mg/mL.
The optimal concentration of sarmentine was 5 mg/mL for excellent control of barnyard grass (Figure 2). Therefore, such a concentration was subjected to herbicidal spectrum study. Due to the hydrophobic property of sarmentine, a carrier solution containing 0.2% glycosperse O-20, 2% ethanol and 0.1% sodium lauryl sulfate was used. Although this solution contains a high concentration of surfactants, sarmentine can stay suspended in this solution no more than 15 min. Therefore, sarmentine was made freshly just before spraying.

Some results are limits rather than exact numbers.

Consider `CCCCC/C=C\C=C\C(=O)OCC` [No 3], for which the pest or weed control at 5000 µg/mL is less than 20%.

As to `CCCCCCCCCC(=O)NC1CCCC1` [No 4, N-Cyclopentyldecanamide], the pest or weed control at 5000 µg/mL is less than 20%.

Regarding `CCCCC/C=C\C=C\C(=O)NC1CCCC1` [No 6, N-Cyclopentyl 2E,4Z-decadienamide], the pest or weed control at 5000 µg/mL was less than 20%.

`O=C(/C=C/c1ccccc1)NC1CCCC1` [No 7, N-Cyclopentylcinnamamide]: the pest or weed control at 5000 µg/mL is less than 20%.

For the compound `CCCCCCCCCC(=O)N1CCCC1` [No 8, N-(Decanoyl)pyrrolidine], the pest or weed control at 5000 µg/mL lay within 80 to 100% and the “Phytotoxic activity relative to sarmentine / toxicity to barnyard grass (in words)” value was “remained the same”.

On to `CCCCCCC/C=C/C(=O)N1CCCC1` [No 9, N-(Decenoyl)pyrrolidine], for which the pest or weed control at 5000 µg/mL fell in the range of 80 to 100% and the “Phytotoxic activity relative to sarmentine / toxicity to barnyard grass (in words)” value is “remained the same”.

On to `CCCCC/C=C\C=C\C(=O)N1CCCC1` [No 10, (2E,4Z-Decadienoyl)pyrrolidine], for which the pest or weed control at 5000 µg/mL lay in the range of 80 to 100% and the “Phytotoxic activity relative to sarmentine / toxicity to barnyard grass (in words)” value was “remained the same”.

Take `O=C(/C=C/c1ccccc1)N1CCCC1` [No 11, N-(trans-Cinnamoyl)pyrrolidine]: the pest or weed control at 5000 µg/mL lay within 80 to 100% and the “Phytotoxic activity relative to sarmentine / toxicity to barnyard grass (in words)” value was “remained the same”.

With `CCCCCCCCCC(=O)N1CCCCC1` [No 12, N-(Decanoyl)piperidine], the pest or weed control at 5000 µg/mL was 80 to 100% and the “Phytotoxic activity relative to sarmentine / toxicity to barnyard grass (in words)” value was “remained the same”.

Regarding `CCCCCCC/C=C/C(=O)N1CCCCC1` [No 13, N-(Decenoyl)piperidine], the pest or weed control at 5000 µg/mL lay in the range of 80 to 100%.

`CCCCC/C=C\C=C\C(=O)N1CCCCC1` [No 14, (2E,4Z-Decadienoyl)piperidine]: the pest or weed control at 5000 µg/mL lay within 80 to 100%.

With `O=C(/C=C/c1ccccc1)N1CCCCC1` [No 15, N-(trans-Cinnamoyl)piperidine], the pest or weed control at 5000 µg/mL was in the range of 40 to 60%.

Consider `CCCCCCCCCC(=O)N1CCCCCC1` [No 16, N-(Decanoyl)hexamethyleneimine], for which the pest or weed control at 5000 µg/mL is 80 to 100% and the “Phytotoxic activity relative to sarmentine / toxicity to barnyard grass (in words)” value is given as “remained the same”.

Turning to `CCCCCCC/C=C/C(=O)N1CCCCCC1` [No 17, N-(Decenoyl)hexamethyleneimine], the pest or weed control at 5000 µg/mL lay within 80 to 100%.

Turning to `CCCCC/C=C\C=C\C(=O)N1CCCCCC1` [No 18, (2E,4Z-Decadienoyl)hexamethleneimine], the pest or weed control at 5000 µg/mL was 80 to 100%.

Consider `O=C(/C=C/c1ccccc1)N1CCCCCC1` [No 19, N-(trans-Cinnamoyl) hexamethleneimine], for which the pest or weed control at 5000 µg/mL is less than 20%.

Take `O=C(O)/C=C/c1ccccc1` [No 20, trans-cinnamic acid, reference compound]: the pest or weed control at 5000 µg/mL fell in the range of 60 to 80% and the “Phytotoxic activity relative to sarmentine / toxicity to barnyard grass (in words)” value is given as “very active”.

Consider `CCCCCCCCCC(=O)O` [No 21, decanoic acid], for which the pest or weed control at 5000 µg/mL lay within 80 to 100% and the “Phytotoxic activity relative to sarmentine / toxicity to barnyard grass (in words)” value was “very active”.

Turning to `CCCCCCC/C=C/C(=O)O` [No 22, 2E-decenoic acid], the pest or weed control at 5000 µg/mL lay in the range of 80 to 100% and the “Phytotoxic activity relative to sarmentine / toxicity to barnyard grass (in words)” value is “very active”.

On to `NC1CCCC1` [No 23, cyclopentylamine, reference compound], for which the “Phytotoxic activity relative to sarmentine / toxicity to barnyard grass (in words)” value is on record as “non toxic” and the “Efficacy of phytotoxic activity” value is on record as “I”.

On to `C1CCNCC1` [No 25, piperidine, reference compound], for which the “Phytotoxic activity relative to sarmentine / toxicity to barnyard grass (in words)” value is reported as “non toxic” and the “Efficacy of phytotoxic activity” value is on record as “I”.

In the case of `C1CCCNCC1` [No 26, hexamethyleneimine, reference compound], the “Phytotoxic activity relative to sarmentine / toxicity to barnyard grass (in words)” value is on record as “non toxic” and the “Efficacy of phytotoxic activity” value is “I”.

On to pyrrolidine [No 24, reference compound], for which the “Phytotoxic activity relative to sarmentine / toxicity to barnyard grass (in words)” value is “non toxic” and the “Efficacy of phytotoxic activity” value is given as “I”.
